The values below come from US5470832A, “Inhibitors of geranylgeranyl-protein transferase” (Merck & Co., Inc., priority 1994, dated 1995).

Common to all, as to format: biochemical
The target of one test is T1, bGGPTase-I (Bos taurus, UniProt P29702+Q5EAD5).
T1 construct: Cerebral lobes from bovine brains were homogenized in lysis buffer; from tissue; host or cells: bovine brain (cerebral lobes)
The test is described as follows: In vitro inhibition of geranylgeranyl protein transferase type I purified from bovine brain (transferase assay). As to conditions: 500 nM Ras-CAIL, 100 nM geranylgeranyl diphosphate, 30 °C. The protocol:
Purification of isoprenyl-protein transferases. All purification steps were performed at 4 ° C. Cerebral lobes from bovine brains were homogenized in lysis buffer containing 50 mM Tris-Cl, pH 8.0, 1 mM EGTA, 1 mM MgCl2, 5 mM dithiothreitol, 10 μg/mL aprotinin, 0.5 mM phenylmethyl sulfonyl fluoride (PMSF), 2 μg/mL antipain and 2 μg/mL leupeptin (M.D. Schaber et al. J. Biol. Chem., 265:14701 (1990)). Cellular debris and membranes were removed by centrifugation (10 000 g for 20 rain followed by 100 000 g for 30 minutes). The supematant was loaded directly onto a column (30 cm × 20 cm^2) of DEAE-Sephacel that had been equilibrated with lysis buffer. The column was washed with the same buffer and proteins were eluted with a linear gradient of NaCl (0-500 mM, 1 L+L) in the same buffer. Fractions (20 mL) were collected and those containing different transferase activities were pooled separately. This procedure resolved FTase and GGPTase-II from GGPTase-I. Each pool was then applied to an ω-Aminooctyl agarose colurctn (30 cm×4.9 cm^2) and eluted with a linear gradient of NaCl (0-500 mM, 500 mL+500 mL) in lysis buffer. Fractions containing both FTase and GGPTase-II were pooled. The GGPTase-I (termed "bGGPTase-I") so obtained was utilized in the assay described below.
Molecular biological manipulations. To construct the C-terminus CAAX box routants, pUC-[L68]RAS1(term.) was digested with the restriction enzymes HincII and NarI to create a vector into which oligonucleotides containing new C-terminal sequences could be ligated. Except where indicated, the amino acids preceding the CAAX sequence are SLK. […]
Transferase Assays. […] Filters were washed four times with 2 mL aliquots of 100% ethanol, mixed with scintillation fluid (10 mL) and then counted in a Beckman LS3801 scintillation counter.
(§1) For inhibition studies, assays were run as described above, except inhibitors were prepared as concentrated solutions in 100% dimethyl sulfoxide and then diluted 20-fold into the enzyme assay mixture. IC50 values were determined with both transferase substrates near KM concentrations. […]

The next test deals with T2, FPTase (Homo sapiens, UniProt P49354+P49356).
T2 construct: made in house
The experiment in a line: In vitro inhibition of recombinant farnesyl-protein transferase (transferase assay). To be noted: 650 nM Ras-CVLS, 100 nM farnesyl diphosphate, 30 °C.
Excerpt: Molecular biological manipulations. To construct the C-terminus CAAX box routants, pUC-[L68]RAS1(term.) was digested with the restriction enzymes HincII and NarI to create a vector into which oligonucleotides containing new C-terminal sequences could be ligated. Except where indicated, the amino acids preceding the CAAX sequence are SLK. To simplify the nomenclature, [L68]RAS1 (term.)SLKCVLS (J.B. Gibbs et al., Proc. Natl. Acad Sci. U.S.A., 86:6630 (1989)) will be referred to as Ras-CVLS, and this convention is used for all other mutants. The substrate for Frase was Ras-CVLS. The substrate for GGPTase-I was Ras-CAIL.
Transferase Assays. Isoprenyl-protein transferase activity assays were carried out at 30 ° C. unless noted otherwise. A typical reaction contained (in a final volume of 50 μL): [^3 H]farnesyl diphosphate or [^3 H]geranylgeranyl diphosphate, Ras protein, 50 mM HEPES, pH 7.5, 5 mM MgCl2, 5 mM dithiothreitol and isoprenyl-protein transferase. The FPTase employed in the assay was prepared by recombinant expression as described in Omer, C. A., Kral, A. M., Diehl, R. E., Prendergast, G. C., Powers, S., Allen, C. M., Gibbs, J. B. and Kohl, N. E. (1993) Biochemistry 32:5167-5176. After thermally pre-equilibrating the assay mixture in the absence of enzyme, reactions were initiated by the addition of isoprenyl-protein transferase and stopped at timed intervals (typically 15 min) by the addition of 1M HCl in ethanol (1 mL). The quenched reactions were allowed to stand for 15 m (to complete the precipitation process). After adding 2 mL of 100% ethanol, the reactions were vacuum-filtered through Whatman GF/C filters. Filters were washed four times with 2 mL aliquots of 100% ethanol, mixed with scintillation fluid (10 mL) and then counted in a Beckman LS3801 scintillation counter.
as §1

For a further test, the target named is T3, hGGPTase-I (Homo sapiens, UniProt P49354+P53609).
T3 construct: made in house; host or cells: E. coli BL21(DE3), strain RD578
The test is described as follows: In vitro inhibition of recombinant human geranylgeranyl protein transferase type I (transferase assay). To be noted: 500 nM Ras-CAIL, 100 nM geranylgeranyl diphosphate, 30 °C. The text has this: Cloning of human GGPTase-I βGGI subunit cDNAs. Approximately 1 nmol of GGPTase-I-I purified from bovine brain as described in Moomaw, J.F. and ,Casey, P.J. (1992) J Biol Chem 267:17438-17443, was subjected to electrophoresis on a 11% SDS-polyacrylamide gel and transferred to nitrocellulose paper. The nitrocellulose paper was then stained with Poneeau S to localize the subunit polypeptides. The 48 kDa and 43 kDa bands were excised from the nitroeellulose and sent to Harvard Microchem (Cambridge, Mass.) for processing. High-confidence sequences of five βGGI subunit peptides were obtained. The sequences of these peptides are listed below:
Two degenerate oligonucleotide primers [GCTC-GGATCC-C-(A/G)AA-(A/G)TT-NGT-(A/G)TA-(T/C)TG-(A/G)A (SEQ.ID.NO.:6) and GTCGG-GAATTC-ACN-AT(A/C/T)-GCN-TT(C/T)-TT(C/T)-GC (SEQ.ID.NO.:7)] were synthesized based on portions of two βGGI subunit peptide sequences [IFQYTNFEK (SEQ.ID.NO.:3) (antisense oligo) and TIAFFLSGLDMLD (SEQ.ID.NO.:I) respectively]. The polymerase chain reaction (PCR) (Saiki, R. K., Gelfand, D. H., Stoffel, S., Scharf, S. J., Higuchi, R., Horn, G. T., Mullis, K. B. and Erlich, H. A. (1988) Science 239:[…]) was performed using DNA obtained from a bovine brain eDNA library as template (Vogel, U.S., Dixon, R. A. F., Schaber, M.D., Diehl, R. E., Marshall, M. S., Scoinick, E. M., Sigal, I. S. and Gibbs, J. B. (1988) Nature 335:90-93). […]

By IC50 is commonly meant the concentration that gives 50% inhibition.

Regarding `CC(C)C[C@H](NC(=O)[C@@H](/C=C/[C@@H](NC[C@@H](N)CS)C(C)C)C(C)C)C(=O)O` [5(S)-[2(R)-amino-3-mercaptopropylamino]-6-methyl(R)-i-propyl-3,4-E-heptenoyl-leucine], the IC50 at bGGPTase-I came to 21 nM; at FPTase it was 70 nM.
As for `CC[C@H](C)[C@H](NC(=O)[C@@H](NC[C@@H](N)CS)C(C)C)C(=O)N[C@@H](CC(C)C)C(=O)O` [N-(2(R)-amino-3-mercaptopropyl)-valyl-isoleucyl-leucine], the IC50 against bGGPTase-I is 1.9 nM; at hGGPTase-I, 23 nM; on FPTase it was 800 nM.
For `CC[C@H](C)[C@@H](CO[C@H](C(=O)N[C@@H](CC(C)C)C(=O)O)C(C)C)NC[C@@H](N)CS` [N-[2(S)-(2(S)-(2(R )-amino-3-mercaptopropylamino)-3(S)-methylpentyloxy)-3-methylbutanoyl]-leucine], the results for the concentration for half-maximal inhibition (IC50) on bGGPTase-I and on FPTase were 37 nM and 450 nM, respectively.
